Four compounds from publication PMC8458285, “The Acinetobacter baumannii disinfectant resistance protein, AmvA, is a spermidine and spermine efflux pump” (Communications Biology, 2021) can be followed below.

Assay [1] deals with T1, AmvR (Acinetobacter baumannii, UniProt A0A0D5YGI2).
T1 construct: gene ABUW_1678; AmvR (amvR amplified from A. baumannii ATCC17978 genomic DNA) carrying a C-terminal hexahistidine tag; dimer in solution
Kind of assay: nanoDSF isothermal analysis (Kd at […] °C); weak, DSF shift only +[…] °C. The assay is classed as binding.

The target of assay [2] is T1, AmvR. As to the kind of experiment: nanoDSF isothermal analysis (Kd at […] °C); DSF shift +[…] °C. The assay is classed as binding.
The target of assay [3] is AmvR (Acinetobacter baumannii ATCC17978). As to the kind of experiment: SEC; analytical SEC on Superdex 200 10/300 GL; elution volume compared with MW standards (HMW and LMW calibration sets).

pKd: −log10 of the molar value.

`NCCCCN` [putrescine]: the pKd on AmvR [1] was 3.59. In the case of `NCCCCNCCCN` [spermidine], the pKd at AmvR [2] is 5.02. Same read-out and setting: in the case of `NCCCNCCCCNCCCN` [spermine] it was 5.27.

For AmvR (natural protein), the stoichiometry N in assay [3] was 2.

As a reminder, the pKd is −log10 of the Kd, conventionally taken in molar units. What is called stoichiometry N is a count of units in the complex or per binding partner.
